According to the NIST ThermoML archive (doi:10.1016/j.jct.2007.04.006):

Key:
[1] = 101.33 kPa, Liquid; for speed of sound: Sing-around technique in a fixed-path interferometer
[2] = mn = molality of the nth substance listed, in mol/kg; details: 101 kPa, Liquid; for speed of sound: Sing-around technique in a fixed-path interferometer

CC(=O)N(C)C [N,N-dimethylethanamide]
[1], 323.15 K
Details | mass density [kg/m3] | speed of sound [m/s]
– | 913.129 | 1357.8

CC(C)=O [acetone]
[1], 298.15 K
Details | mass density [kg/m3] | speed of sound [m/s]
– | 784.233 | 1161.7

CC#N [acetonitrile]
[1], 298.15 K
Details | mass density [kg/m3] | speed of sound [m/s]
– | 776.6 | 1279.2

CCO [ethanol]
[1], 298.15 K
Details | mass density [kg/m3] | speed of sound [m/s]
– | 785.125 | 1143.4

[Br-].[Li+] [lithium bromide] + CC#N
[2], 298.15 K
Details | mass density [kg/m3] | speed of sound [m/s]
m1 = 0.0209 | 778.135 | 1279.8
m1 = 0.0302 | 778.802 | 1280.1
m1 = 0.0403 | 779.512 | 1280.4
m1 = 0.0478 | 780.04 | 1280.6
m1 = 0.07 | 781.58 | 1281.3
m1 = 0.0799 | 782.247 | 1281.6
m1 = 0.0904 | 782.95 | 1281.9
m1 = 0.0986 | 783.518 | 1282.1
m1 = 0.1212 | 784.97 | 1282.8
m1 = 0.1506 | 786.812 | 1283.7
m1 = 0.1985 | 789.96 | 1285
m1 = 0.2498 | 793.354 | 1286.4
m1 = 0.2981 | 796.544 | 1287.7
m1 = 0.3974 | 803.094 | 1290.4
m1 = 0.5004 | 809.733 | 1293.1
m1 = 0.596 | 815.99 | 1295.6
m1 = 0.6972 | 822.595 | 1298.2

[Br-].[Li+] [lithium bromide] + CC(=O)N(C)C
[2], 323.15 K
Details | mass density [kg/m3] | speed of sound [m/s]
m1 = 0.0322 | 915.827 | 1360.8
m1 = 0.0511 | 917.401 | 1362.5
m1 = 0.0638 | 918.452 | 1363.6
m1 = 0.0978 | 921.232 | 1366.4
m1 = 0.1188 | 922.89 | 1368.1
m1 = 0.1475 | 925.178 | 1370.3
m1 = 0.2003 | 929.349 | 1374.4
m1 = 0.2472 | 933.065 | 1378.2
m1 = 0.3042 | 937.515 | 1382.1
m1 = 0.3988 | 944.893 | 1389.2
m1 = 0.4886 | 951.867 | 1395.9
m1 = 0.601 | 960.362 | 1403.8
m1 = 0.7053 | 968.26 | 1411.4
m1 = 0.9019 | 982.963 | 1425.5
m1 = 1 | 990.219 | 1432.6
m1 = 1.189 | 1004.06 | 1446.1
m1 = 1.327 | 1013.96 | 1455.4

[Br-].[Li+] [lithium bromide] + CC(C)=O
[2], 298.15 K
Details | mass density [kg/m3] | speed of sound [m/s]
m1 = 0.0301 | 784.377 | 1141.5
m1 = 0.0367 | 785.81 | 1142.3
m1 = 0.0486 | 786.228 | 1142.6
m1 = 0.0679 | 787.379 | 1143.1
m1 = 0.0776 | 787.748 | 1143.3
m1 = 0.0873 | 790.137 | 1144.5
m1 = 0.099 | 793.601 | 1146.2
m1 = 0.1177 | 797.348 | 1148.1
m1 = 0.1424 | 803.296 | 1150.9
m1 = 0.3719 | 806.427 | 1152.3
m1 = 0.4973 | 811.456 | 1154.5
m1 = 0.5928 | 818.719 | 1157.7
m1 = 0.7044 | 824.988 | 1160.3
m1 = 0.8 | 829.74 | 1162.3

[Br-].[Li+] [lithium bromide] + CC(C)O
[2], 298.15 K
Details | mass density [kg/m3] | speed of sound [m/s]
m1 = 0.0787 | 786.228 | 1142.6
m1 = 0.0957 | 787.379 | 1143.1
m1 = 0.1024 | 787.748 | 1143.3
m1 = 0.1387 | 790.137 | 1144.5
m1 = 0.1915 | 793.601 | 1146.2
m1 = 0.2503 | 797.348 | 1148.1
m1 = 0.3451 | 803.296 | 1150.9
m1 = 0.3951 | 806.427 | 1152.3
m1 = 0.4768 | 811.456 | 1154.5
m1 = 0.594 | 818.719 | 1157.7
m1 = 0.697 | 824.988 | 1160.3
m1 = 0.7757 | 829.74 | 1162.3
m1 = 0.9066 | 837.46 | 1165.4
m1 = 1.003 | 843.093 | 1167.7
m1 = 1.158 | 851.831 | 1170.5
m1 = 1.272 | 858.084 | 1173.5

[Br-].[Li+] [lithium bromide] + CCO
[2], 298.15 K
Details | mass density [kg/m3] | speed of sound [m/s]
m1 = 0.0789 | 790.432 | 1147
m1 = 0.0913 | 791.251 | 1147.4
m1 = 0.0985 | 791.782 | 1147.8
m1 = 0.1384 | 794.334 | 1149.2
m1 = 0.1556 | 795.465 | 1150.1
m1 = 0.2019 | 798.467 | 1151.6
m1 = 0.2348 | 800.584 | 1152.6
m1 = 0.2495 | 801.494 | 1153.2
m1 = 0.301 | 804.725 | 1154.7
m1 = 0.4002 | 810.966 | 1157.8
m1 = 0.4903 | 816.539 | 1160.5
m1 = 0.6076 | 823.796 | 1163.8
m1 = 0.7038 | 829.747 | 1166.5
m1 = 0.8013 | 835.512 | 1168.9
m1 = 0.8975 | 841.268 | 1171.5
m1 = 1.013 | 848.08 | 1174.4
m1 = 1.093 | 852.846 | 1176.6
m1 = 1.215 | 860.012 | 1179.5

[Br-].[Li+] [lithium bromide] + CO
[2], 298.15 K
Details | mass density [kg/m3] | speed of sound [m/s]
m1 = 0.0425 | 789.48 | 1110.7
m1 = 0.0588 | 790.553 | 1111.3
m1 = 0.0714 | 791.384 | 1112
m1 = 0.0903 | 792.602 | 1112.8
m1 = 0.1168 | 794.333 | 1113.9
m1 = 0.1473 | 796.328 | 1115.1
m1 = 0.2089 | 800.289 | 1117.7
m1 = 0.2993 | 806.041 | 1121.1
m1 = 0.5035 | 818.761 | 1128.8
m1 = 0.7097 | 831.385 | 1136.2
m1 = 0.9875 | 848.253 | 1146.1
m1 = 1.163 | 858.424 | 1152
m1 = 1.464 | 876.582 | 1162.5
m1 = 1.97 | 905.481 | 1179.6
m1 = 2.45 | 933.222 | 1195.9
m1 = 3.489 | 989.847 | 1231.2

CO [methanol]
[1], 298.15 K
Details | mass density [kg/m3] | speed of sound [m/s]
– | 786.71 | 1108.5

CC(C)O [propan-2-ol]
[1], 298.15 K
Details | mass density [kg/m3] | speed of sound [m/s]
– | 780.804 | 1139.1
